Source: US10407381B2 (THE BOARD OF TRUSTEES OF THE UNIVERSITY OF ILLINOIS, priority 2015, dated 2019)
Where two headings read alike, the source gives them in different places.

Experiments:
human 5-HT2C-INI = target: T1, human 5-HT2C-INI (Homo sapiens, UniProt P28335); test: Calcium flux (FLIPR) assay, human 5-HT2C-INI stably expressed in HEK-293 (Flp-In-293) cells; settings: for Emax, % 5-HT 5-HT2C: normalized to 5-HT
T1 sequence (P28335 33-458): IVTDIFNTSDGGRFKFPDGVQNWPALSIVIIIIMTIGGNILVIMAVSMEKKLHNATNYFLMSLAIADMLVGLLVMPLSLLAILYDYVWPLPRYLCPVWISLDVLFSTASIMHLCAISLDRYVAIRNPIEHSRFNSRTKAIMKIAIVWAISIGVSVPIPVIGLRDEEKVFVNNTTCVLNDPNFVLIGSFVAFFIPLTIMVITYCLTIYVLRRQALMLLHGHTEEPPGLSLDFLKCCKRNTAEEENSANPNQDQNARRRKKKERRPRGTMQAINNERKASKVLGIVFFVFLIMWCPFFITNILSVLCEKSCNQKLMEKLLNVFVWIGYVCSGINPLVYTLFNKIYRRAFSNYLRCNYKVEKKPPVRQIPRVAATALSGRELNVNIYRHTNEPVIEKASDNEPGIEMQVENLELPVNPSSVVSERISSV

5-HT2B = 5-HT2B (Homo sapiens, UniProt P41595); test: Calcium flux (FLIPR) assay, human 5-HT2B stably expressed in HEK-293 (Flp-In-293) cells; settings: human 5-HT2B in HEK-293 cells; for EC50: EC50, nM 5-HT2B, NA = no activity at 10 μM; for Emax, % 5-HT 5-HT2B: normalized to 5-HT
5-HT2A = 5-HT2A (Homo sapiens, UniProt P28223); test: Calcium flux (FLIPR) assay, human 5-HT2A stably expressed in HEK-293 (Flp-In-293) cells; settings: human 5-HT2A in HEK-293 cells, FLIPR; for EC50: NA = no activity at 10 μM; for Emax, % 5-HT 5-HT2A: normalized to 5-HT
[1] = EC50, nM 5-HT2C, human 5-HT2C-INI in HEK-293 cells, FLIPR, NA = no activity at 10 μM
[2] = human 5-HT2C-INI in HEK-293 cells, FLIPR
[3] = read-out: EC50, nM 5-HT2C, human 5-HT2C-INI in HEK-293 cells, FLIPR, NA = no activity at 10 μM

Chain of 5-HT2B (P41595 whole entry): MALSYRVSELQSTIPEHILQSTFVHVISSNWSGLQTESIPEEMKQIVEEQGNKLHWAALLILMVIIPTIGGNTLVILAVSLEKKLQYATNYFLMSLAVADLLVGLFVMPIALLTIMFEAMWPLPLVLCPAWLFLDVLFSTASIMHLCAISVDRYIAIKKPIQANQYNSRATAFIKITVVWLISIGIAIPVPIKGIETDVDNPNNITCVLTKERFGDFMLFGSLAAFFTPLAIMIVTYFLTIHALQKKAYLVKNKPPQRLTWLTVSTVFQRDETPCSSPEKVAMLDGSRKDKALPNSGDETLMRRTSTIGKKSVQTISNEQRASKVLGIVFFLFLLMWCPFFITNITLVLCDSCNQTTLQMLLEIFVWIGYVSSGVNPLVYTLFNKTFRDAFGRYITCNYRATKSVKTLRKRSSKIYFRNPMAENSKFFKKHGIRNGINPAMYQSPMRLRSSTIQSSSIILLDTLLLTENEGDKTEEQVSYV
Chain of 5-HT2A (P28223 whole entry): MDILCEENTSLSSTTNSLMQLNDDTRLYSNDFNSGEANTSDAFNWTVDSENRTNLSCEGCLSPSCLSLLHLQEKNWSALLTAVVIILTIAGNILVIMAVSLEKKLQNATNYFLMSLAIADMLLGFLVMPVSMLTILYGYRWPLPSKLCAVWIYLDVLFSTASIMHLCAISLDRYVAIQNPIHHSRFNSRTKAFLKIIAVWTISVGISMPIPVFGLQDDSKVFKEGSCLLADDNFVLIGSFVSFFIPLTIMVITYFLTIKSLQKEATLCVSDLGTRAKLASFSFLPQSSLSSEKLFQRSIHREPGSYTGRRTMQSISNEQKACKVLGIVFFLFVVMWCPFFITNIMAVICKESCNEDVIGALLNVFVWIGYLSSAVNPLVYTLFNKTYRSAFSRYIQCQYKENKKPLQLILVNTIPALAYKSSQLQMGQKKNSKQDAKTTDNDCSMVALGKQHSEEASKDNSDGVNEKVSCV

Compound | EC50 (human 5-HT2C-INI; [1]) [nM] | Emax, % 5-HT 5-HT2C (human 5-HT2C-INI; [2]) | EC50 (5-HT2B) [nM] | Emax, % 5-HT 5-HT2B (5-HT2B) | EC50 (5-HT2A; EC50, nM 5-HT2A) [nM] | Emax, % 5-HT 5-HT2A (5-HT2A) | EC50 (human 5-HT2C-INI; EC50, nM 5-HT2C) [nM] | EC50 (human 5-HT2C-INI; [3]) [nM] | EC50 (5-HT2A; read-out: EC50, nM 5-HT2A) [nM]
COc1cc(F)c(Cl)cc1[C@@H]1C[C@H]1CN (single isomer, unassigned) [(+)-Example 1, (+)-(2-(5-Chloro-4-fluoro-2-methoxyphenyl)cyclopropyl)methanamine] | 7.6 | (97%) % 5-HT | 25 | (59%) % 5-HT | 81 | (93%) % 5-HT |  |  | 
COc1ccc(Cl)c(F)c1[C@@H]1C[C@H]1CN (single isomer, unassigned) [(+)-Example 29, (+)-(2-(3-chloro-2-fluoro-6-methoxyphenyl)cyclopropyl)methanamine] | 13 | (92%) % 5-HT | 354 | (52%) % 5-HT | 212 | (85%) % 5-HT |  |  | 
COc1ccc(F)c(F)c1[C@@H]1C[C@H]1CN (single isomer, unassigned) [(+)-Example 45, (+)-(2-(2,3-Difluoro-6-methoxyphenyl)cyclopropyl)methanamine] | 9.5 | (108%) % 5-HT | 209 | (64%) % 5-HT | 437 | (79%) % 5-HT |  |  | 
COc1cc(F)c(Cl)cc1[C@@H]1C[C@H]1CN (single isomer, unassigned) [(−)-Example 1, (−)-(2-(5-Chloro-4-fluoro-2-methoxyphenyl)cyclopropyl)methanamine] | 16 | (99%) % 5-HT | 329 | (44%) % 5-HT | 235 | (88%) % 5-HT |  |  | 
COc1cc(F)c(F)cc1[C@@H]1C[C@H]1CN (single isomer, unassigned) [(−)-Example 40, (−)-(2-(4,5-Difluoro-2-methoxyphenyl)cyclopropyl)methanamine] |  | (104%) % 5-HT |  | (59%) % 5-HT | 511 | (76%) % 5-HT |  |  | 
CCOc1cc(F)c(Cl)cc1C1CC1CN (single isomer, unassigned; (+)) [(+)-Example 2, (+)-(2-(5-Chloro-2-ethoxy-4-fluorophenyl)cyclopropyl)methanamine] | 4.1 | (92%) % 5-HT | 286 | (82%) % 5-HT | 194 | (66%) % 5-HT |  |  | 
C=C(F)COc1ccc(F)cc1C1CC1CN (single isomer, unassigned; (+)) [(+)-Example 9, (+)-(2-(5-Fluoro-2-((2-fluoroallyl)oxy)phenyl)cyclopropyl)methanamine] | 22 | (91%) % 5-HT |  |  | 1670 | (17%) % 5-HT |  |  | 
CCOc1cc(F)c(Cl)cc1C1CC1CN (single isomer, unassigned; (-)) [(−)-Example 2, (−)-(2-(5-Chloro-2-ethoxy-4-fluorophenyl)cyclopropyl)methanamine] | 118 | (92%) % 5-HT |  |  | 1240 | (18%) % 5-HT |  |  | 
C=CCOc1ccc(F)cc1C1CC1CN (single isomer, unassigned; (-)) [(−)-Example 8, (−)-(2-(2-(Allyloxy)-5-fluorophenyl)cyclopropyl)methanamine] | 157 | (87%) % 5-HT |  |  | 697 | (56%) % 5-HT |  |  | 
NCC1CC1c1cc(F)ccc1OCCF (single isomer, unassigned; (-)) [(−)-Example 10, (−)-(2-(5-Fluoro-2-(2-fluoroethoxy)phenyl)cyclopropyl)methanamine] | 514 | (77%) % 5-HT |  |  | 2990 | (20%) % 5-HT |  |  | 
NCC1CC1c1cc(Cl)ccc1OCCF (single isomer, unassigned; (-)) [(−)-Example 19, (−)-(2-(5-Chloro-2-(2-fluoroethoxy)phenyl)cyclopropyl)methanamine] | 1130 | (59%) % 5-HT | 4520 | (31%) % 5-HT |  |  |  |  | 
NCC1CC1c1cc(Cl)ccc1OCCCF (single isomer, unassigned; (-)) [(−)-Example 20, (−)-(2-(5-Chloro-2-(3-fluoropropoxy)phenyl)cyclopropyl)methanamine] | 1260 | (24%) % 5-HT | 6170 | (22%) % 5-HT |  |  |  |  | 
C=CCOc1ccc(Cl)cc1C1CC1CN (single isomer, unassigned; (-)) [(−)-Example 23, (−)-(2-(2-(Allyloxy)-5-chlorophenyl)cyclopropyl)methanamine] | 737 | (42%) % 5-HT | 4300 | (28%) % 5-HT |  |  |  |  | 
C#CCOc1ccc(Cl)cc1C1CC1CN (single isomer, unassigned; (-)) [(−)-Example 26, (−)-(2-(5-Chloro-2-(prop-2-yn-1-yloxy)phenyl)cyclopropyl)methanamine] | 365 | (71%) % 5-HT | 4410 | (30%) % 5-HT |  |  |  |  | 
NCC1CC1c1c(OCCF)ccc(Cl)c1F (single isomer, unassigned; (-)) [(−)-Example 31, (−)-(2-(3-Chloro-2-fluoro-6-(2-fluoroethoxy)phenyl)cyclopropyl)methanamine] | 386 | (80%) % 5-HT |  | (0%) % 5-HT |  |  |  |  | 
C=CCOc1cc(Cl)c(Cl)cc1C1CC1CN (single isomer, unassigned; (-)) [(−)-Example 35, (−)-(2-(2-(Allyloxy)-4,5-dichlorophenyl)cyclopropyl)methanamine] | 278 | (84%) % 5-HT |  | (14%) % 5-HT |  |  |  |  | 
NCC1CC1c1c(OCCF)ccc(Cl)c1Cl (single isomer, unassigned; (-)) [(−)-Example 38, (−)-(2-(2,3-Dichloro-6-(2-fluoroethoxy)phenyl)cyclopropyl)methanamine] | 224 | (85%) % 5-HT | 10400 | (62%) % 5-HT |  |  |  |  | 
CCCOc1cc(F)c(F)cc1C1CC1CN (single isomer, unassigned; (-)) [(−)-Example 43, (−)-(2-(4,5-Difluoro-2-propoxyphenyl)cyclopropyl)methanamine] |  | (89%) % 5-HT | 2970 | (13%) % 5-HT |  |  | 119 |  | 
NCC1CC1c1c(OCCF)ccc(F)c1F (single isomer, unassigned; (-)) [(−)-Example 47, (−)-(2-(2,3-Difluoro-6-(2-fluoroethoxy)phenyl)cyclopropyl)methanamine] | 509 | (78%) % 5-HT |  | (29%) % 5-HT |  |  |  |  | 
C=CCOc1ccc(F)c(F)c1C1CC1CN (single isomer, unassigned; (-)) [(−)-Example 49, (−)-(2-(6-(Allyloxy)-2,3-difluorophenyl)cyclopropyl)methanamine] | 151 | (89%) % 5-HT | 4460 | (26%) % 5-HT |  |  |  |  | 
COc1ccc(F)c(Cl)c1C1CC1CN (single isomer, unassigned; (-)) [(−)-Example 50, (−)-(2-(2-Chloro-3-fluoro-6-methoxyphenyl)cyclopropyl)methanamine] |  | (96%) % 5-HT |  |  |  | (72%) % 5-HT |  | 3.2 | 119
CCOc1ccc(F)c(Cl)c1C1CC1CN (single isomer, unassigned; (-)) [(−)-Example 51, (−)-(2-(2-Chloro-6-ethoxy-3-fluorophenyl)cyclopropyl)methanamine] | 38 | (89%) % 5-HT | 1640 | (33%) % 5-HT |  |  |  |  | 
NCC1CC1c1c(OCCF)ccc(F)c1Cl (single isomer, unassigned; (-)) [(−)-Example 52, (−)-(2-(2-Chloro-3-fluoro-6-(2-fluoroethoxy)phenyl)cyclopropyl)methanamine] |  | (80%) % 5-HT |  | (29%) % 5-HT |  |  |  | 135 | 
C=CCOc1ccc(F)c(Cl)c1C1CC1CN (single isomer, unassigned; (-)) [(−)-Example 53, (−)-(2-(6-(Allyloxy)-2-chloro-3-fluorophenyl)cyclopropyl)methanamine] | 101 | (89%) % 5-HT |  | (57%) % 5-HT |  |  |  |  | 
